Experimental data from patent EP2913057B1, “Cancer peptide therapeutics” (Indiana University Research and Technology Corporation, priority 2008, dated 2010).
“Also recorded” adds a separate entry of the source. Residues, ends and D or L forms follow the SMILES beside them.

What was measured:
U937 cells [1] = experiment: cells; conditions: Homo sapiens, U-937, read-out: cell death
U937 cells [2] = experiment: Cytotoxicity (apoptosis / cell death) of R9-linked caPCNA peptides by flow cytometry; assay type: cell-based; conditions: 24 hours; for % cancer cell death: 30mM of peptide, flow cytometry
Protocol: First, it was tested whether or not the R9 sequence alone had any cytotoxic effect in U937 cells. The U937 cells were treated with up to 100mM of the R9 sequence for 24 hours.
Once it was established that the R9 sequence promoted cellular uptake of the peptide, increasing amounts of R9-caPep were added to U937 cells to determine if the peptide's uptake would have any cytotoxic effect.
To verify that the cytotoxicity of the R9-caPep was due to the PCNA peptide sequence itself, a scrambled peptide using the same eight amino acids, R9-Scrambled, was prepared (Table 3).
The cancer associated epitope of PCNA is also part of the flexible IDCL region of PCNA. This region of PCNA is considered to have a disordered structure. Disordered regions in proteins are usually associated with protein-to-protein interaction sites. […] To determine which amino acids in the R9-caPep sequence are necessary for binding of the peptide to these proteins, peptide constructs were generated that mutated each aminoacid individually to an alanine (Table 3). Each alanine mutant peptide of caPCNA was used to treat U937 cells for 24 hours. An amino acid that is important to protein binding would presumably show decreased cell cytotoxicity when it is substituted with an alanine. Those amino acids which are not critical for binding could be anticipated to show a cytotoxic level similar to that of the unsubstituted peptide. For a comparison of the potential cytotoxic effect of each of the alanine substituted R9-linked caPeptides, U937 cells were treated with 30mM of peptide. […] It was observed that peptides containing an alanine substituted at position aa126 or aa133 show little cytotoxic activity and therefore were likely important for the peptide's activity.

MCF 7 (breast cancer) = experiment: Cytotoxic effect in malignant breast cells, cell death by flow cytometry; assay type: cell-based; parameters: dose or concentration left out as unconfirmed; conditions: 48 hours
Protocol: The R9-caPeptide was evaluated for cytotoxic effects in non-malignant (MCF 10A) and malignant (MCF 7) breast cells (Table 6). The cells were treated with 50 mM R9-caPeptide for 48 hours and the extent of cell death was evaluated by flow cytometry. […] The significant level of cytotoxicity in breast cancer cells is likely due to enhanced binding interaction of caPeptide with specific DNA repair proteins in these cells, as indicated for example by the observed preferential binding of caPCNA for XPG protein, leading to an inhibition of DNA repair in these cells, and ultimately cell death.

Molecule	% cancer cell death (U937 cells [2])	other results
COc1cccc2c1C(=O)c1c(O)c3c(c(O)c1C2=O)C[C@@](O)(C(=O)CO)C[C@@H]3O[C@H]1C[C@H](N)[C@H](O)[C@H](C)O1 [doxorubicin]	–	cytotoxicity at 0.1 µM (U937 cells [1]): 30%
RRRRRRRRRCCLGIPEQAY [A7-sub. peptide, R9-linked caPCNA peptide, alanine at aa132]	88±4%	–
RRRRRRRRRCCLGIPAQEY [A5-sub. peptide, R9-linked caPCNA peptide, alanine at aa130]	45±14%	–
RRRRRRRRRCCLGIPEAEY [A6-sub. peptide, R9-linked caPCNA peptide, alanine at aa131]	93±7%	–
RRRRRRRRRCCLAIPEQEY [A2-sub. peptide, R9-linked caPCNA peptide, alanine at aa127]	47±13%	–
RRRRRRRRR [R9, reference compound]	–	cytotoxic effect (apoptosis) (U937 cells [2]; up to 100mM of the R9 sequence): did not promote apoptosis; also recorded: did not cause an increase apoptosis
CC[C@H](C)[C@H](NC(=O)CNC(=O)[C@@H](N)CC(C)C)C(=O)N1CCC[C@H]1C(=O)N[C@@H](CCC(=O)O)C(=O)N[C@@H](CCC(N)=O)C(=O)N[C@@H](CCC(=O)O)C(=O)N[C@@H](Cc1ccc(O)cc1)C(=O)O [caPeptide] (H-LGIPEQEY-OH)	–	cytotoxic activity (apoptosis) (U937 cells [2]; up to 200mM of caPeptide): did not have any cytotoxic activity; also recorded: no increase in apoptosis was detected
RRRRRRRRRCCLGAPEQEY [A3-sub. peptide, R9-linked caPCNA peptide, alanine at aa128]	21±12%	–
RRRRRRRRRCCLGIPEQEA [A8-sub. peptide, R9-linked caPCNA peptide, alanine at aa133]	7±6%	–
CC[C@H](C)[C@H](NC(=O)CNC(=O)[C@H](CC(C)C)NC(=O)[C@H](CS)NC(=O)[C@H](CS)NC(=O)[C@@H](CCCNC(=N)N)NC(=O)[C@@H](CCCNC(=N)N)NC(=O)[C@@H](CCCNC(=N)N)NC(=O)[C@@H](CCCNC(=N)N)NC(=O)[C@@H](CCCNC(=N)N)NC(=O)[C@@H](CCCNC(=N)N)NC(=O)[C@@H](CCCNC(=N)N)NC(=O)[C@@H](CCCNC(=N)N)NC(=O)[C@H](N)CCCNC(=N)N)C(=O)N1CCC[C@H]1C(=O)N[C@@H](CCC(=O)O)C(=O)N[C@@H](CCC(N)=O)C(=O)N[C@@H](CCC(=O)O)C(=O)N[C@@H](Cc1ccc(O)cc1)C(=O)O [R9-caPep]	–	cytotoxicity for malignant breast cells (MCF7) relative to non-malignant breast cells (MCF10A) (MCF 7 (breast cancer)): approximately five times more cytotoxic
RRRRRRRRRCCAGIPEQEY [A1-sub. peptide, R9-linked caPCNA peptide, alanine at aa126]	8±9%	–
RRRRRRRRRCCLGIAEQEY [A4-sub. peptide, R9-linked caPCNA peptide, alanine at aa129]	80±7%	–
